Test results reported in ChEMBL document CHEMBL1201862, “PubChem BioAssay data set” (2004).
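Growth conditions: 96-well plates. Treatment: test compound, 48 hours, 5 concentrations. Analysis: linear interpolation between bracketing concentrations; unreached endpoints set to highest concentration. GI50 is the concentration that inhibits growth by half.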 Calls of active or inactive are those of the source. Rule as the data show it: active = GI50 up to about 1.1 µM and inactive = higher.

Assays:
Experiment in all cases: growth of human tumour cells (NCI), 48 h
[1] = test system: MDA-N
[2] = test system: Malme-3M
[3] = test system: HCC 2998
[4] = test system: COLO 205
[5] = test system: UO-31
[6] = test system: RXF 393
[7] = test system: SF-539
[8] = test system: M14
[9] = test system: SF-268
[10] = test system: MCF7
[11] = test system: PC-3
[12] = test system: HOP-62
[13] = test system: MDA-MB-435
[14] = test system: BT-549
[15] = test system: SN12C
[16] = test system: MDA-MB-231
[17] = test system: HL-60
[18] = test system: DU-145
[19] = test system: OVCAR-8
[20] = test system: NCI-H226

Structure (SMILES)	GI50 [1]	GI50 [2]	GI50 [3]	GI50 [4]	GI50 [5]	GI50 [6]	GI50 [7]	GI50 [8]	GI50 [9]	GI50 [10]	GI50 [11]	GI50 [12]	GI50 [13]	GI50 [14]	GI50 [15]	GI50 [16]	GI50 [17]	GI50 [18]	GI50 [19]	GI50 [20]
COc1cc(C2c3cc4c(cc3OC3(OC)COC(=O)C23)OCO4)cc(OC)c1OC(C)=O (stereo not given)	0.206 µM (active)	> 100 µM (inactive)	2.75 µM (inactive)	3.87 µM (inactive)	6.28 µM (inactive)	0.499 µM (active)	0.374 µM (active)	1.66 µM (inactive)	6.75 µM (inactive)	1.07 µM (active)	0.429 µM (active)	0.8 µM (active)	0.331 µM (active)	5 µM (inactive)	3.93 µM (inactive)	2.9 µM (inactive)	1.23 µM (inactive)	2.52 µM (inactive)	2.52 µM (inactive)	1.13 µM (inactive)
CN(C)C=O.O=C(Nc1nnn[nH]1)c1nc(O)cc(-c2ccccc2)n1	> 100 µM (inactive)	> 100 µM (inactive)	> 100 µM (inactive)	> 100 µM (inactive)	> 100 µM (inactive)	> 100 µM (inactive)	> 100 µM (inactive)	> 100 µM (inactive)	> 100 µM (inactive)	> 100 µM (inactive)	> 100 µM (inactive)	> 100 µM (inactive)	> 100 µM (inactive)	> 100 µM (inactive)	> 100 µM (inactive)	> 100 µM (inactive)	> 100 µM (inactive)	> 100 µM (inactive)	> 100 µM (inactive)	> 100 µM (inactive)
O=C1C=CC(=O)c2c1ccc1c3ccccc3n(Cc3cccc([N+](=O)[O-])c3)c21	16 µM (inactive)	19.5 µM (inactive)	> 80.7 µM (inactive)	14.3 µM (inactive)	50 µM (inactive)	22.5 µM (inactive)	> 54 µM (inactive)	27.7 µM (inactive)	39.6 µM (inactive)	22.3 µM (inactive)	30.1 µM (inactive)	> 100 µM (inactive)	26.2 µM (inactive)	40.1 µM (inactive)	21.8 µM (inactive)	24.2 µM (inactive)	6.9 µM (inactive)	> 100 µM (inactive)	30.4 µM (inactive)	99.3 µM (inactive)
CCCCCC(C)SC1(C(=O)OC)CC(OC(C)=O)C(NC(C)=O)C([C@H](OC(C)=O)[C@@H](COC(C)=O)OC(C)=O)O1 (stereo not given in full)	90.6 µM (inactive)	44.1 µM (inactive)	30.2 µM (inactive)	–	38.5 µM (inactive)	88.1 µM (inactive)	22.3 µM (inactive)	71 µM (inactive)	> 100 µM (inactive)	43.7 µM (inactive)	67.3 µM (inactive)	> 100 µM (inactive)	70.1 µM (inactive)	55.6 µM (inactive)	> 100 µM (inactive)	41.9 µM (inactive)	42.5 µM (inactive)	> 100 µM (inactive)	83.2 µM (inactive)	40.6 µM (inactive)
O=C1C=CC(=O)c2cc(Sc3ccccc3)c(=O)ccc21	16.9 µM (inactive)	12.7 µM (inactive)	16.3 µM (inactive)	7.73 µM (inactive)	11.7 µM (inactive)	12.3 µM (inactive)	19.8 µM (inactive)	17.8 µM (inactive)	22 µM (inactive)	5.83 µM (inactive)	18.2 µM (inactive)	28.6 µM (inactive)	25.5 µM (inactive)	17.9 µM (inactive)	16.2 µM (inactive)	17.9 µM (inactive)	0.877 µM (active)	17.4 µM (inactive)	15.7 µM (inactive)	23.1 µM (inactive)
Cn1cnc2c(sc3nc4ccccc4n32)c1=N	> 100 µM (inactive)	> 100 µM (inactive)	17.6 µM (inactive)	> 100 µM (inactive)	> 100 µM (inactive)	> 100 µM (inactive)	> 100 µM (inactive)	> 100 µM (inactive)	> 100 µM (inactive)	> 100 µM (inactive)	> 100 µM (inactive)	> 100 µM (inactive)	> 100 µM (inactive)	> 100 µM (inactive)	–	> 100 µM (inactive)	> 100 µM (inactive)	> 100 µM (inactive)	41.5 µM (inactive)	> 100 µM (inactive)
COC(=O)NN=C(c1ccc(Cl)cc1)c1ccc(Cl)cc1	> 100 µM (inactive)	> 100 µM (inactive)	> 100 µM (inactive)	51.2 µM (inactive)	> 100 µM (inactive)	22.4 µM (inactive)	93.8 µM (inactive)	> 100 µM (inactive)	> 100 µM (inactive)	> 100 µM (inactive)	> 100 µM (inactive)	–	> 100 µM (inactive)	80.2 µM (inactive)	> 100 µM (inactive)	> 100 µM (inactive)	> 100 µM (inactive)	80.7 µM (inactive)	> 100 µM (inactive)	> 100 µM (inactive)
CC(=O)c1cc2c(Br)cccc2oc1=O	52 µM (inactive)	> 100 µM (inactive)	> 100 µM (inactive)	> 100 µM (inactive)	–	> 100 µM (inactive)	> 100 µM (inactive)	> 100 µM (inactive)	95.5 µM (inactive)	> 100 µM (inactive)	> 100 µM (inactive)	> 100 µM (inactive)	54.5 µM (inactive)	79.1 µM (inactive)	> 100 µM (inactive)	> 100 µM (inactive)	> 100 µM (inactive)	> 100 µM (inactive)	> 100 µM (inactive)	> 100 µM (inactive)
Nc1nc(-[n+]2ccc(-c3ccncc3)cc2)nc(Cl)c1Cl	> 100 µM (inactive)	34.9 µM (inactive)	> 100 µM (inactive)	36.2 µM (inactive)	32.9 µM (inactive)	16.5 µM (inactive)	26.8 µM (inactive)	> 100 µM (inactive)	18.4 µM (inactive)	4.6 µM (inactive)	54.3 µM (inactive)	43 µM (inactive)	> 100 µM (inactive)	> 100 µM (inactive)	20.3 µM (inactive)	35.4 µM (inactive)	18.6 µM (inactive)	> 100 µM (inactive)	–	> 100 µM (inactive)
CN1N=C(c2ccccc2)c2cc(Cl)ccc2N=C1N/N=C/c1ccc(N(C)C)cc1	> 100 µM (inactive)	–	> 100 µM (inactive)	> 100 µM (inactive)	> 100 µM (inactive)	> 100 µM (inactive)	> 100 µM (inactive)	> 100 µM (inactive)	> 100 µM (inactive)	> 100 µM (inactive)	58.5 µM (inactive)	> 100 µM (inactive)	> 100 µM (inactive)	> 100 µM (inactive)	> 100 µM (inactive)	97.7 µM (inactive)	39.6 µM (inactive)	> 100 µM (inactive)	> 100 µM (inactive)	58.1 µM (inactive)
O=C1CC(NC(=O)C(F)(F)F)c2c(Br)sc(N3CCC(c4ccccc4)CC3)c21 (stereo not given)	78.9 µM (inactive)	> 100 µM (inactive)	> 100 µM (inactive)	> 100 µM (inactive)	8.77 µM (inactive)	17 µM (inactive)	44.6 µM (inactive)	> 100 µM (inactive)	43.4 µM (inactive)	18.7 µM (inactive)	25.6 µM (inactive)	–	> 100 µM (inactive)	27.7 µM (inactive)	> 100 µM (inactive)	3.73 µM (inactive)	9.44 µM (inactive)	22.2 µM (inactive)	24.9 µM (inactive)	28.4 µM (inactive)
Nc1nc(Cl)nc(NCc2ccccc2)n1	> 100 µM (inactive)	> 100 µM (inactive)	> 100 µM (inactive)	> 100 µM (inactive)	–	> 100 µM (inactive)	> 100 µM (inactive)	> 100 µM (inactive)	> 100 µM (inactive)	> 100 µM (inactive)	> 100 µM (inactive)	> 100 µM (inactive)	> 100 µM (inactive)	> 100 µM (inactive)	> 100 µM (inactive)	> 100 µM (inactive)	48 µM (inactive)	> 100 µM (inactive)	> 100 µM (inactive)	> 100 µM (inactive)
COC(=O)[C@H](CNC(=O)/C=C/c1ccc(OC(C)=O)c(OC(C)=O)c1)NC(=O)/C=C/c1ccc(OC(C)=O)c(OC(C)=O)c1	> 100 µM (inactive)	16.4 µM (inactive)	> 100 µM (inactive)	> 100 µM (inactive)	–	> 100 µM (inactive)	> 100 µM (inactive)	> 100 µM (inactive)	> 10 µM (inactive)	> 100 µM (inactive)	> 100 µM (inactive)	> 100 µM (inactive)	> 100 µM (inactive)	> 100 µM (inactive)	> 100 µM (inactive)	> 100 µM (inactive)	> 100 µM (inactive)	> 100 µM (inactive)	> 100 µM (inactive)	> 100 µM (inactive)
C=C1C(C2(C)C=CC(=O)OC3(C)COC(=O)CC32)C(OC=O)C(OC(=O)C(O)C(C)CC)C2(C)C(c3ccoc3)CC(OC(C)=O)C12O (stereo not given)	37.6 µM (inactive)	–	23.6 µM (inactive)	81.8 µM (inactive)	67.3 µM (inactive)	> 100 µM (inactive)	> 100 µM (inactive)	38.8 µM (inactive)	> 100 µM (inactive)	> 100 µM (inactive)	39.2 µM (inactive)	> 100 µM (inactive)	40 µM (inactive)	54.6 µM (inactive)	> 100 µM (inactive)	> 100 µM (inactive)	2.69 µM (inactive)	> 100 µM (inactive)	> 100 µM (inactive)	> 100 µM (inactive)
